Test results taken from ChEMBL document CHEMBL3991601, “The target landscape of clinical kinase drugs” (Science, 2017).
Active and inactive are the calls of the source.

Legend:
[1] = target: T1, Bifunctional phosphoribosylaminoimidazole carboxylase/phosphoribosylaminoimidazole succinocarboxamide synthetase (Homo sapiens, UniProt P22234)
T1 sequence (P22234 whole entry): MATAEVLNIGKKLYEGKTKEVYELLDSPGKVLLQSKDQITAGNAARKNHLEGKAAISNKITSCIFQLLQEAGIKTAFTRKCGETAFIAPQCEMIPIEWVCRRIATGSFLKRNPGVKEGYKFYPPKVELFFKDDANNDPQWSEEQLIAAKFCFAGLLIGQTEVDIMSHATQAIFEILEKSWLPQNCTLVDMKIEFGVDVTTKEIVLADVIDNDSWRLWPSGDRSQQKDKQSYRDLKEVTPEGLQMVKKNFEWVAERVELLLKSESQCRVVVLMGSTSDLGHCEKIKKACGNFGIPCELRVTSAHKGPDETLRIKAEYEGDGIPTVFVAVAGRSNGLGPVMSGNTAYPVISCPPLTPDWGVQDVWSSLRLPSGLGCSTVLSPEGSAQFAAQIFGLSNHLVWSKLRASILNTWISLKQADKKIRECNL

Actin-related protein 2 = Actin-related protein 2 (Homo sapiens, UniProt P61160)
[2] = target: T2, Ribosyldihydronicotinamide dehydrogenase [quinone] (Homo sapiens, UniProt P16083)
T2 sequence (P16083 whole entry): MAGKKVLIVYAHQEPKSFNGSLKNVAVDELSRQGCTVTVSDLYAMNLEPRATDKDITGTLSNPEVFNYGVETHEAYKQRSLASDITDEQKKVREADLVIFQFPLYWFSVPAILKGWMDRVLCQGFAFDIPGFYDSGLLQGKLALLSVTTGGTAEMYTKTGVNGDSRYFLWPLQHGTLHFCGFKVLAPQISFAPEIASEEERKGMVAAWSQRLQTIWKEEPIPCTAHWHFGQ

[3] = target: T3, Serine/threonine-protein kinase ULK1 (Homo sapiens, UniProt O75385)
T3 sequence (O75385 whole entry): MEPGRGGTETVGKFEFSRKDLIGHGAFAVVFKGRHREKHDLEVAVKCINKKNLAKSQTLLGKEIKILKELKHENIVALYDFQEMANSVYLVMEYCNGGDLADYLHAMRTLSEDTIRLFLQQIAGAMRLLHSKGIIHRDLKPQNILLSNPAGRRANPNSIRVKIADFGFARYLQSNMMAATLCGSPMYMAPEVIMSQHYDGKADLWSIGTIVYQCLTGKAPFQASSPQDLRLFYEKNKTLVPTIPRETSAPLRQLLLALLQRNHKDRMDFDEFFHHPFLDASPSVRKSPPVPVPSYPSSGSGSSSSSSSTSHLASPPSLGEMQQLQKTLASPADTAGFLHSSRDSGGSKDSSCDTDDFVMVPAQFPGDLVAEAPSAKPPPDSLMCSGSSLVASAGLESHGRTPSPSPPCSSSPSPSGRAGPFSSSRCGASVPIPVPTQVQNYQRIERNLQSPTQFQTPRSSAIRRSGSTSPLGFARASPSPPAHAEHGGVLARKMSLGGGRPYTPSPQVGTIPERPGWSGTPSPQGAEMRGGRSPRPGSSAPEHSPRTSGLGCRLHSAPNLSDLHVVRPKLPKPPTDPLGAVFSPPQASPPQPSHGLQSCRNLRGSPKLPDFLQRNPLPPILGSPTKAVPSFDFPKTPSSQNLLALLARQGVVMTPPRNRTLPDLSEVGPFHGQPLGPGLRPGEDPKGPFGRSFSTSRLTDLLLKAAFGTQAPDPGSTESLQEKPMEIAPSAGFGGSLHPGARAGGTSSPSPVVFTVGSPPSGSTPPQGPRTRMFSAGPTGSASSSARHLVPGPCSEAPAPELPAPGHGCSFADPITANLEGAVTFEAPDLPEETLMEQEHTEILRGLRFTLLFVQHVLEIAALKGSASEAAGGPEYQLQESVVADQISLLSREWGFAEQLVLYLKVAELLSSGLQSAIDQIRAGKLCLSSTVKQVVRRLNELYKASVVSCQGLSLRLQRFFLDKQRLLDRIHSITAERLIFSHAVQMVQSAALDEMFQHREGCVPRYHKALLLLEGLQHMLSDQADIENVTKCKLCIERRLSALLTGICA

[4] = target: T4, Succinate--CoA ligase [ADP-forming] subunit beta, mitochondrial (Homo sapiens, UniProt Q9P2R7)
T4 sequence (Q9P2R7 whole entry): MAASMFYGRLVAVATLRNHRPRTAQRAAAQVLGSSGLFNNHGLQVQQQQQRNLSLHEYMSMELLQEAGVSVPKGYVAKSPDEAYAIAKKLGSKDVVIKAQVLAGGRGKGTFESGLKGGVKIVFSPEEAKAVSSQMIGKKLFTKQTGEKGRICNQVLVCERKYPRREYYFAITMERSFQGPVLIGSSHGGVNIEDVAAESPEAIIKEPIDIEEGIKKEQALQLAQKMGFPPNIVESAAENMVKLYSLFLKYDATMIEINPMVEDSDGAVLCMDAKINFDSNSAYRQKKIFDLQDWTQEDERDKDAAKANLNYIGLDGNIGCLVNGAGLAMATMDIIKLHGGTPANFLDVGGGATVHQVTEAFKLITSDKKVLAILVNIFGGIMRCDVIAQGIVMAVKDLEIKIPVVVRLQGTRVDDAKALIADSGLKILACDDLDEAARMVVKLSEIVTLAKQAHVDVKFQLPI

[5] = target: T5, Dual specificity mitogen-activated protein kinase kinase 6 (Homo sapiens, UniProt P52564)
T5 sequence (P52564 whole entry): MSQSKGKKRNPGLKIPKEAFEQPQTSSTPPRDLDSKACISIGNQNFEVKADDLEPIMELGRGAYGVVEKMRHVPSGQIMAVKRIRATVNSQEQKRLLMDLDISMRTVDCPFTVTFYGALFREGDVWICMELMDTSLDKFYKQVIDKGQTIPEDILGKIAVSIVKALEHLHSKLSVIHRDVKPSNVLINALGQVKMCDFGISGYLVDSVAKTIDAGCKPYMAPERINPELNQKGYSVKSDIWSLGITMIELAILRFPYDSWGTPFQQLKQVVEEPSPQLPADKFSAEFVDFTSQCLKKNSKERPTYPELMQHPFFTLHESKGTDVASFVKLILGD

[6] = target: Chromodomain-helicase-DNA-binding protein 4 (Homo sapiens, UniProt Q14839)
Further: in the data inactive means no Kd found up to 30 µM.

Chromodomain-helicase-DNA-binding protein 4, sequence (Q14839 whole entry): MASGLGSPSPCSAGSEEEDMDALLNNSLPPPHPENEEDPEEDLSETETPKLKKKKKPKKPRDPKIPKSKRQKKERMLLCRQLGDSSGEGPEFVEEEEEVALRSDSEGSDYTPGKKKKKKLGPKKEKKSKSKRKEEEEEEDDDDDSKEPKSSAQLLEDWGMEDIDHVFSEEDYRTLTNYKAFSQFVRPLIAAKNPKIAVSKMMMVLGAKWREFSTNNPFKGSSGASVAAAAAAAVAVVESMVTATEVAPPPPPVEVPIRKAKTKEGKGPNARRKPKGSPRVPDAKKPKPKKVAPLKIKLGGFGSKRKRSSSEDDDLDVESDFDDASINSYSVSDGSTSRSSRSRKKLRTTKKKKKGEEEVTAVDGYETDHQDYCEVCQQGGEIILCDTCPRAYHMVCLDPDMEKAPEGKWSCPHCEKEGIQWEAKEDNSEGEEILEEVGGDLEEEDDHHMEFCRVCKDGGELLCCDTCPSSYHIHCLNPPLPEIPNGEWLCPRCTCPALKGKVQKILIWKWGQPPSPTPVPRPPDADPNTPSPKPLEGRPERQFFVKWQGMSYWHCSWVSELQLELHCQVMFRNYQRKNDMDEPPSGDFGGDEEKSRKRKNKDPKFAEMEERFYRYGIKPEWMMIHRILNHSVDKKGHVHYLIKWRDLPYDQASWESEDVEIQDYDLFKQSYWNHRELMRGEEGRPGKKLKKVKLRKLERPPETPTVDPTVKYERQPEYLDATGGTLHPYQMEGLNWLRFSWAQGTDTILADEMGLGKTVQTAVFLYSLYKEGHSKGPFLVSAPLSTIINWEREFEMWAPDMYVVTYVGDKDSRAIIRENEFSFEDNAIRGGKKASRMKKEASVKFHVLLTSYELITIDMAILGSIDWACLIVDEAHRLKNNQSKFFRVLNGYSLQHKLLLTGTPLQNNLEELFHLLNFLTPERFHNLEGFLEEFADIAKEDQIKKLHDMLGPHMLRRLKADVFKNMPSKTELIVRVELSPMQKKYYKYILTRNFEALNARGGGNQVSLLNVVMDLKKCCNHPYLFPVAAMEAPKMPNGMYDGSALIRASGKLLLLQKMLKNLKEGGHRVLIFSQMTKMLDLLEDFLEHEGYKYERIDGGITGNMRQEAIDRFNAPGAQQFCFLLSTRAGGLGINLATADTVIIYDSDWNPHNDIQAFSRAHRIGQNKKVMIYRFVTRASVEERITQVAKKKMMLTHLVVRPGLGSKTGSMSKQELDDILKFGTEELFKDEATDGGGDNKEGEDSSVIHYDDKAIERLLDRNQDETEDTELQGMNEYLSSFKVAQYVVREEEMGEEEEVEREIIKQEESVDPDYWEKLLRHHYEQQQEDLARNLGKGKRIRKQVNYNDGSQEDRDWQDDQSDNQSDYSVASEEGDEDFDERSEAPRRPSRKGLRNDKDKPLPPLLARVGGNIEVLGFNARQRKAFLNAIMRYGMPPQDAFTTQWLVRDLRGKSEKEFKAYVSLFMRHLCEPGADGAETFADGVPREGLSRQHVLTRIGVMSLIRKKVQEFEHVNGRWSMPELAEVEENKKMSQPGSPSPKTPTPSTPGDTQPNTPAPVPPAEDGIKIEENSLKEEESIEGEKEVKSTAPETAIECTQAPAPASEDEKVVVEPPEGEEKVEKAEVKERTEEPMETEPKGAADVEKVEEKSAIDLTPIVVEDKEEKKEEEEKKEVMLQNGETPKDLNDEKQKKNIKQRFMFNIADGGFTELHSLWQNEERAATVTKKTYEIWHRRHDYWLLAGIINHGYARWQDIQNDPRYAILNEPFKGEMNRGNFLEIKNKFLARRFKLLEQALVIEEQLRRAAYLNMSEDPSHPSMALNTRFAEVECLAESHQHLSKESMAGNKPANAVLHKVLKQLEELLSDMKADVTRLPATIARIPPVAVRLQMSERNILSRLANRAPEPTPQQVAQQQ

| Kd [1] | Kd (Actin-related protein 2) | Kd [2] | Kd [3] | Kd [4] | Kd [5] | Kd [6] | SMILES |
| --- | --- | --- | --- | --- | --- | --- | --- |
| > 30 µM (inactive) | > 30 µM (inactive) | > 30 µM (inactive) | > 30 µM (inactive) | > 30 µM (inactive) | > 30 µM (inactive) | > 30 µM (inactive) | O=C(NC[C@H](O)CO)c1ccncc1Nc1ccc(I)cc1F [PIMASERTIB] |
| > 30 µM (inactive) | > 30 µM (inactive) | > 30 µM (inactive) | > 30 µM (inactive) | > 30 µM (inactive) | > 30 µM (inactive) | > 30 µM (inactive) | C#Cc1cccc(Nc2ncnc3cc4c(cc23)OCCOCCOCCO4)c1 [ICOTINIB] |
